Like-named read-outs stand apart in the source and are kept apart here.
Experiments:
[1] = tested on: phospho-AMPK Thr-172 (p-AMPK); assay: Western blot of phospho-AMPK Thr-172 in HEK293T cells; type: cell-based, human; details: 1 and 10μM, negatives re-screened at 5 and 20 μM, 3 hours
Protocol: AMPK is a metabolic sensor that maintains cellular energy supply. As validation of these changes in lipid metabolism and cellular respiration we evaluated phospho-AMPK Thr-172 (p-AMPK) levels by Western blot in HEK293 cells treated with the phenylbenzamide derivatives. Compounds were screened at 1 and 10μM using the known uncouplers niclosamide and FCCP as positive controls (Fig 4A). […] We concluded that compounds that had little effect on oxygen consumption rates also had little effect on phosphorylation of AMPK.

[2] = tested on: Salmonella typhimurium TA1537; details: for Mean Revertant Colony Counts TA-1537 SP9+: with S9; for Mean Revertant Colony Counts TA-1537 S9-: without S9
[3] = tested on: Escherichia coli WP2 uvrA (pKM101); assay: Ames assay, strain WP2 uvrA (pKM101); details: for Mean Revertant Colony Counts WP2 uvrA (pKM101) SP9+: with S9; for Mean Revertant Colony Counts WP2 uvrA (pKM101) S9-: without S9
[4] = any concentration tested, vs negative control

## CC(C)(C)c1ccc(O)c(C(=O)Nc2ccc(C(=O)O)cc2C(F)(F)F)c1 [Compound 500873, 4-[(5-tert-butyl-2-hydroxy)amido]-3-(trifluoromethyl)benzoic acid]
[1]
  phosphorylation of AMPK (p-AMPK Thr-172) by Western blot: no detectable changes in pAMPK levels

## CC(C)(C)c1cc(C(=O)Nc2ccc(C(=O)O)cc2Cl)c(O)c(C(C)(C)C)c1 [Compound 600453, 3-Chloro-4-[(3,5-di-tert-butyl-2-hydroxybenzene)amido]benzoic acid]
[2]; 1.5 ug/Well
  Mean Revertant Colony Counts TA-1537 SP9+: 2.3
  Mean Revertant Colony Counts TA-1537 S9-: 0.7
[2]; 4 ug/Well
  Mean Revertant Colony Counts TA-1537 SP9+: 3.3
  Mean Revertant Colony Counts TA-1537 S9-: 1.3
[2]; 10 ug/Well
  Mean Revertant Colony Counts TA-1537 SP9+: 1.7
  Mean Revertant Colony Counts TA-1537 S9-: 2.3
[2]; 25 ug/Well
  Mean Revertant Colony Counts TA-1537 SP9+: 1.7
  Mean Revertant Colony Counts TA-1537 S9-: 1.3
[2]; 64 ug/Well
  Mean Revertant Colony Counts TA-1537 SP9+: 1.0
  Mean Revertant Colony Counts TA-1537 S9-: 0.3
[2]; 160 ug/Well
  Mean Revertant Colony Counts TA-1537 SP9+: 3.3
  Mean Revertant Colony Counts TA-1537 S9-: 0.0
[2]; 400 ug/Well
  Mean Revertant Colony Counts TA-1537 SP9+: 0.7
  Mean Revertant Colony Counts TA-1537 S9-: 1.0
[2]; 1000 ug/Well
  Mean Revertant Colony Counts TA-1537 SP9+: 3.7
  Mean Revertant Colony Counts TA-1537 S9-: 0.3
[2]; [4]
  fold increase in the mean number of revertant colonies, TA1537: < 3 fold
[3]; 1.5 ug/Well
  Mean Revertant Colony Counts WP2 uvrA (pKM101) SP9+: 36.0
  Mean Revertant Colony Counts WP2 uvrA (pKM101) S9-: 31.7
[3]; 4 ug/Well
  Mean Revertant Colony Counts WP2 uvrA (pKM101) SP9+: 35.0
  Mean Revertant Colony Counts WP2 uvrA (pKM101) S9-: 20.7
[3]; 10 ug/Well
  Mean Revertant Colony Counts WP2 uvrA (pKM101) SP9+: 31.7
  Mean Revertant Colony Counts WP2 uvrA (pKM101) S9-: 29.3
[3]; 25 ug/Well
  Mean Revertant Colony Counts WP2 uvrA (pKM101) SP9+: 33.3
  Mean Revertant Colony Counts WP2 uvrA (pKM101) S9-: 15.7
[3]; 64 ug/Well
  Mean Revertant Colony Counts WP2 uvrA (pKM101) SP9+: 28.0
  Mean Revertant Colony Counts WP2 uvrA (pKM101) S9-: 23.0
[3]; 160 ug/Well
  Mean Revertant Colony Counts WP2 uvrA (pKM101) SP9+: 23.0
  Mean Revertant Colony Counts WP2 uvrA (pKM101) S9-: 20.0
[3]; 400 ug/Well
  Mean Revertant Colony Counts WP2 uvrA (pKM101) SP9+: 15.3
  Mean Revertant Colony Counts WP2 uvrA (pKM101) S9-: 9.0
[3]; 1000 ug/Well
  Mean Revertant Colony Counts WP2 uvrA (pKM101) SP9+: 9.0
  Mean Revertant Colony Counts WP2 uvrA (pKM101) S9-: 3.7
[3]; [4]
  fold increase in the mean number of revertant colonies, WP2 uvrA (pKM101): < 2 fold
